Reference: patent US6316020A, “Pharmaceutical formulations” (priority 2000, dated 2001)

Assay: Solubility assessment as a function of HPβCD concentration
Assay type: physicochemical
Settings: water
Protocol: Solubility studies were performed by the addition of a known mass of 5(6)-methoxy-2-[[(4-methoxy-3,5-dimethyl-2-pyridinyl)-methyl]sulfinyl]-1H- benzimidazole and/or HP CD to a given volume of solvent system. Solubilities were determined by observation, as the maximum concentration at which 5(6)-methoxy-2-[[(4-methoxy-3,5-dimethyl-2-pyridinyl)-methyl]sulfinyl]-1H- benzimidazole completely dissolved. Additionally, concentrations of 5(6)-methoxy-2-[[(4-methoxy-3,5-dimethyl-2-pyridinyl)-methyl]sulfinyl]-1H- benzimidazole and HP C D at set molar ratios were solubilized in systems of high pH (adjusted as high as 12.2, with 1N NaOH), the pH was adjusted (using 2N HCl) in a stepwise downward manner until precipitation occurred.
The solubility of 5(6)-methoxy-2-[[(4-methoxy-3,5-dimethyl-2-pyridinyl)-methyl]sulfinyl]-1H- benzimidazole was assessed as a function of HPβCD concentration in water.
The procedure according to Example 86 was repeated except that water with a borate buffer (pH of 8) was employed.
The procedure according to Example 86 was repeated except that water with a phosphate buffer (pH of 11) was employed.

COc1ccc2[nH]c([S+]([O-])Cc3ncc(C)c(OC)c3C)nc2c1 (centres unmarked) [5(6)-methoxy-2-[[(4-methoxy-3,5-dimethyl-2-pyridinyl)-methyl]sulfinyl]-1H-benzimidazole]
Solubility as a function of HPβCD concentration: increase linearly as a function of HPβCD concentration
influence of pH on solubility: influenced by solution pH
